Columns and labels:
rhlA-gfp(ASV) expression = assay: Inhibition of the Rhl QS system, rhlA-gfp(ASV) reporter in PAO1 wild-type and lasR mutant; format: cell-based, P. aeruginosa
Protocol: (§1) Inhibition of the Rhl and PQS QS systems in wild-type PAO1 and PAO1 lasR mutant. Wild-type P. aeruginosa PAO1 strains harboring either the rhlA-gfp(ASV) reporter or the pqsA-gfp(ASV) reporter, and a P. aeruginosa PAO1 lasR mutant harboring either the rhlA-gfp(ASV) reporter or the pqsA-gfp(ASV) reporter were used for this experiment (Refer to FIG. 11 for strain information). Overnight cultures of these four strains were diluted 100-fold in ABTGC media within 96-well microtitre plates to a final volume of 200 μL per well. Each of the five QSIs was added in triplicate to a final concentration of 50 μM. 0.5% DMSO was used as a negative control. The microtitre plate was incubated at 37° C. in a Tecan Infinite 200 Pro plate reader where GFP and OD600 readings were measured at 15 min intervals.
(§2) Effect of QSIs on Rhl and Pqs Quorum-Sensing Systems. In order to address the problem of the specificity of present compounds, the five identified QSI compounds were tested to see if they had any effect on the rhl and pqs systems. The five QSIs were tested against a PAO1 wild-type and a PAO1 lasR mutant harboring either the rhlA-gfp (ASV) bioreporter or the pqsA-gfp (ASV) bioreporter. The rhlA system is dependent on the RhlR/I system. By doing so, we were able to determine if a QSI is able to inhibit the other two QS systems (i.e. rhl and pqs) in a lasR-dependent/independent manner (FIG. 8).

[1] = tested on: LasR-controlled GFP expression in P. aeruginosa PAO1 lasB-gfp(ASV) strain; assay: P. aeruginosa QS inhibition assay with lasB-gfp(ASV) reporter strain; format: cell-based, Pseudomonas aeruginosa; settings: for effect on cell growth / inhibition of LasR-controlled GFP expression: P. aeruginosa lasB-gfp(ASV) strain; for effect on cell growth: OD600; for inhibition of LasR-controlled GFP expression: 0.78125-50 μM
Protocol: P. aeruginosa QS inhibition assays. Test compounds were dissolved in 100% DMSO and mixed with ABTGC media, after which they were added to the first column of wells of a 96-well microtitre plate (Nunc) to give a final concentration of 100 μM in a final volume of 200 μl. 100 μL of ABTGC media was then added to the remaining wells in the plate and serial two-fold dilutions of the inhibitors were done by adding 100 μL of the preceding inhibitor-containing well to the subsequent one. The final column was left without inhibitor as a control. Next, an overnight culture of P. aeruginosa lasB-gfp(ASV) strain, grown in LB medium at 37° C. with shaking, was diluted to an optical density (OD) at 600 nm of 0.2, and 100 μl of bacterial suspension was added to each well of the microtitre plate. […] The microtitre plate was incubated at 37° C. in a Tecan Infinite 200 Pro plate reader (Tecan Group Ltd., Männedorf, Switzerland). GFP fluorescence (excitation at 485 nm, emission at 535 nm) and cell density (OD600) measurements were collected at 15 min intervals for at least 14 h. The P. aeruginosa Rhl and Pqs inhibition assays were performed in a similar manner to the LasR inhibition assay.
Inhibition Assay with the P. aeruginosa lasB-gfp(ASV) strain. In the preliminary screen, the 22 selected QSI candidates were screened for their ability to inhibit QS-controlled green fluorescent protein (GFP) expression in the P. aeruginosa lasB-gfp(ASV) strain. Elastase (encoded by the lasB gene) is a virulence factor that is controlled by LasR and therefore a good indicator for LasR activity. […] For ease of identification, each compound was designated a short compound identification code based on its well position in the shipment in place of its standard IUPAC name.
The dose-response curves of these 5 QSI candidates when incubated with the P. aeruginosa PAO1 lasB-gfp(ASV) strain are shown in FIG. 3. GFP expression, which was measured in relative fluorescence units, was normalized by dividing the GFP value by the corresponding OD600 value measured at that time-point. ‘Control’ refers to the PAO1 strain grown without the presence of QSI, and as expected, it had the highest GFP per OD values. For these five compounds, dose-dependent inhibition of lasB-gfp expression was observed, i.e. the higher the concentration of QSI that was present, the greater the inhibition of gfp expression.
IC50 Value Comparisons of the Five QSI Candidates. The slope of the curve for each QSI was calculated based on its respective dose-response curves (from FIG. 3) and plotted against the log inhibitor concentration. The slope is indicative of the biosynthesis rate of GFP due to AHL induction. The half maximal inhibitory concentrations (IC50) of the five QSI candidates were calculated using the Graphpad Prism 6 software package (GraphPad Software Inc., CA, USA).

pqsA-gfp(ASV) expression = assay: Inhibition of the PQS QS system, pqsA-gfp(ASV) reporter in PAO1 wild-type and lasR mutant; format: cell-based, P. aeruginosa
Protocol: as §1, §2

elastase (lasB; PA3724) = settings: cited from earlier work
protease IV = settings: cited from earlier work

Compound: NC(Cc1cccc(F)c1)C(=O)O (racemic) [Compound F1, 2-amino-3-(3-fluorophenyl)propanoic acid]
- inhibition of rhlA-gfp expression (rhlA-gfp(ASV) expression; PAO1 lasR mutant, 50 μM QSI): 63.1%
- inhibition of rhlA-gfp expression (rhlA-gfp(ASV) expression; wild-type PAO1, 50 μM QSI): 61.7%
- effect on cell growth [1]: without affecting cell growth
- inhibition of LasR-controlled GFP expression [1]: inhibit LasR-controlled GFP expression in a dose-dependent manner
- inhibition of pqsA-gfp expression (pqsA-gfp(ASV) expression; PAO1 lasR mutant, 50 μM QSI): 39.4%
- inhibition of pqsA-gfp expression (pqsA-gfp(ASV) expression; wild-type PAO1, 50 μM QSI): 25.4%

Compound: NC(C(=O)O)C(O)c1ccccc1 (racemic) [Compound H1, 2-amino-3-hydroxy-3-phenylpropanoic acid]
- effect on cell growth [1]: without affecting cell growth
- inhibition of LasR-controlled GFP expression [1]: inhibit LasR-controlled GFP expression in a dose-dependent manner

Compound: O=[N+]([O-])c1cc[n+]([O-])cc1 [Compound 4-NPO, 4-nitropyridine-N-oxide]
- reduction of expression of elastase (elastase (lasB; PA3724)): −22.6 fold
- reduction of expression of protease IV (protease IV): −20.7 fold

Compound: O=c1[nH]cnc2[nH]nnc12 [Compound C1, 6-hydro-3H-1,2,3-triazolo[5,4-d]pyrimidin-7-one]
- IC50 of lasB-gfp expression, range in words ([1]; P. aeruginosa PAO1 lasB-gfp(ASV)): high nanomolar range
- effect on cell growth [1]: without affecting cell growth
- inhibition of LasR-controlled GFP expression [1]: inhibit LasR-controlled GFP expression in a dose-dependent manner

Compound: O=C1C=C2C(=CCOC2O)O1 (stereo not drawn) [patulin]
- reduction of expression of elastase (elastase (lasB; PA3724)): −7 fold

Compound: C=C(C)C(=O)C(=CC(=O)O)OC [penicillic acid]
- reduction of expression of elastase (elastase (lasB; PA3724)): −12 fold
